Test results published in patent US9796676B2, “Honeybee repellents and uses thereof” (Inscent, Inc., priority 2013, dated 2017).

Assays:
[1] = system: Apis mellifera Carniolan foraging worker honeybees; test: Choice test in a free-flight box apparatus; assay type: in vivo; settings: for P (probability that a honeybee will return to a test dish, nP divided by n): control likelihood without compound 47.5%; for nP (number of tests a honeybee returned to a preferred test dish): free-flight box, 2 μL of 0.05-0.5% compound on filter papers under honey dish
Description: To determine whether living honeybees will choice to move towards a source of a candidate compound, these compounds will be assayed using a choice test in a free-flight box apparatus.
All tests will be done in a free-flight box apparatus. The apparatus comprises a 244 cm long×46 cm deep×30 cm high clear plastic box including two equally-sized independent testing chambers, each with 10 cm diameter air inlets that admit filtered room air, separated by a smaller central chamber with a screened air outlet to each testing chamber. Air can be pulled through the sealed box via a 10 cm diameter duct from the air outlet using an AQE Fume Fighter 500 fume extractor (BPA Air Quality Solutions, LLC, Charleston, S.C.), which removes the test odors using activated charcoal and HEPA filters. The box is housed in an environmentally controlled room with overhead illumination timed to correspond to the current ambient light cycle including 2 additional sets of lights timed to approximate crepuscular lighting conditions. The bottom of the apparatus will be lined with clean absorbent paper marked with a 4×9 grid pattern, forming 12 cm×12 cm squares with marked coordinates.
Apis mellifera Carniolan foraging worker honeybees will be obtained from a local apiary (typically 60 bees per shipment). Thirty honeybees will be put into each testing chamber and will be allowed to acclimate for 24 hours with food and water freely available. At the beginning of each test day all food will be removed from the test chamber, but water will be continually available throughout all tests. For each test, approximately 0.3 g of organic, raw orange blossom honey will be added to each clean small plastic weigh boat (Cole-Palmer). The honey boats will be placed in small plastic culture dishes, which will be distributed in the marked squares in the chambers. The positions of the dishes on the grid for a set of trials will be chosen to avoid the bees' preferred resting area so that they will have to find the food actively, but the same dish positions will be maintained for a given set of trials. We will use seven dishes of honey: six to which the bees will have access and a seventh that will have a screened lid. The honey in each boat will be weighed on an analytical balance before and after the test, with the screened sample as a control for evaporative loss. The fume extractor will be left off during the experimental trails, and will be turned on to clear the air after the test dishes are covered and removed from the chamber at the end of each trial.
Based on the observation that bees tend to return to dishes in the same position where they have fed before, each set of trials with each group of bees began with “Pattern Identification” tests to see which dishes lose the most weight, reflecting the most feeding. Once bees are consuming an acceptable amount in 10-15 min, typically in 1-2 trials, a set of test compound trials will begin. The test compound will be pipetted onto pieces of filter paper placed on the dish bottom below the boat containing a fresh, weighed honey sample so that the test compound will be inaccessible to the bees. We used 2 μL of a candidate compound at a concentration of 0.05-0.5%, in Triton X-100 or paraffin oil, on each of four pieces of filter paper per dish. The test-solution dishes will be set at the same positions as the one or two dishes favored in the preceding Pattern Identification trial. To eliminate interference from the solvent, the other dishes without the test substance will contain the same volume of the appropriate solvent on filter papers as the test solution dishes. The bees will be allowed to feed for 10-15 minutes. Bee movements will be recorded by a small, wide-angle digital video camcorder (HD Hero 960; GoPro, Halfmoon Bay, Calif.) placed on a tripod in front of the test chamber. […]

[2] = cited from earlier work
OBP2 = test: Fluorescent-quench ligand-protein-binding assay (OBP2 binding); design: species or system Apis mellifera
Description: To identify a honeybee repellent disclosed herein, candidate compounds were screened based upon the fact that 2-heptanone is an established repellent of bees. 2-heptanone is thought to mediate its behavioral response through binding to a specific odorant-binding protein called OBP2. […] Such assays are generally known in the art. See, e.g., Briand, et al., Ligand-Binding Properties and Structural Characterization of a Novel Rat Odorant-Binding Protein Variant, Eur. J. Biochem. 267(10): 3079-3089 (2000); Briand, et al., Ligand Binding and Physico-Chemical Properties of ASP2, A Recombinant Odorant-Binding Protein From Honeybee (Apis mellifera L.), Eur. J. Biochem. 268(3): 752-760 (2001); Briand, et al., Characterization of a Chemosensory Protein (ASP3c) from Honeybee (Apis mellifera L.) as a Brood Pheromone Carrier, Eur. J. Biochem. 269(18): 4586-4596 (2002), each of which is hereby incorporated by reference in its entirety.

[3] = system: Apis mellifera Carniolan foraging worker honeybees; test: Proboscis extension response (PER) assay with bees conditioned to 2-heptanone; assay type: in vivo; settings: 0.5% compound in Triton X-100/water on filter paper, 4 s exposure; only bees giving PER with 2-heptanone and not with water or 15% Triton X-100 controls counted
Procedure: To determine whether a living honeybee can recognize a candidate compound, these compounds were tested using a proboscis extension response (PER) assay using classical conditioning approaches. Proboscis extension response conditioning is a case of appetitive learning, in which bees learn to associate odor stimuli with sucrose reward in the laboratory. In this case, bees were conditioned to produce a PER to 2-heptanone as the conditioned stimulus and a sugar reward as the unconditioned stimulus. These trained bees were then exposed to an odor pulse of a candidate compound to test whether a candidate compound would also produce a PER. If the candidate compound “mimics” 2-heptanone then the honeybee will extend its proboscis.
For conditioning procedures, Apis mellifera Carniolan foraging worker honeybees were obtained from a local apiary (typically 60 bees per shipment). The honeybees were held overnight in insect cages with food and water freely available, in an environmentally controlled room on a light cycle similar to the ambient cycle at the time of the assay.
For conditioning procedures, all tests were done in an odorant delivery apparatus set inside a fume hood. The apparatus comprised a set of open-ended, horizontal, 3 cm diameter by 10 cm long plastic tubes. Each tube was designed where a honeybee could be positioned at the distal end of a tube, with the opening at the other end of the tube located proximal to an inlet of the fume hood. To deliver an odorant, room air was pumped by a diaphragm pump through a particle filter via 0.25 inch plastic tubing at approximately 0.7 m/sec. The air flow passes into the headspace above an odorant (0.5% [v/v] 2-heptanone dissolved in odorless light paraffin oil) contained in a 100 mL bottle. The headspace air then passes through another plastic tube to a manifold of 4-way valves, each of which was attached near the proximal end of a plastic tube containing a bee. Each bee was exposed separately for a desired time period to the odorant by opening and closing the appropriate valve. When each valve was closed, the odor was flushed away immediately by the continuous fume hood air stream.
To train a honeybee to respond to a conditioned and unconditioned stimuli, bees were placed, without anesthesia, in individual 1.5 mL micro-centrifuge holding tubes and held overnight without access to food or water. The holding tubes containing the starved bees were placed in racks in groups of eight. One rack at a time was placed behind the odorant delivery apparatus so that each bee's head is centered at the distal end of a horizontal plastic tube. Each bee was exposed to the 2-heptanone odorant alone for four seconds, and then while being fed an 80% sucrose solution for and additional three seconds. The sucrose solution was delivered on a piece of saturated filter paper held in forceps. […] Positive and negative responses were recorded. A positive PER was scored when a bee extended its proboscis before the sucrose appeared. In a typical trial, 48 individual bees were subjected to conditioning.
After conditioning, honeybees were tested with the candidate compounds the same day or on the following day or, most commonly, both. When held overnight, bees were fed with sucrose and kept in their holding tubes. When tested the day after training, bees were given one or more rounds of conditioning with 2-heptatone to refresh their memories. Candidate compounds stocks were made at 5% (w/v) in polyoxyethylene octyl phenyl ether (TRITON® X-100), a non-ionic detergent/surfactant, and stored at 4° C. […] Test solutions were made fresh daily by mixing stock solutions with water for a final compound concentration of 0.5%. A solution of 0.5% 2-heptanone in paraffin oil was used as a positive control.

| Compound | Z-score ([1]; Z-test vs control likelihood 47.5%, alpha=10%, critical Z-score 1.282, positive = attractant, negative = repellant) | P (probability that a honeybee will return to a test dish, nP divided by n) [1] | nP (number of tests a honeybee returned to a preferred test dish) [1] | Solubility in water [2] | OBP2 binding characteristic of compound (OBP2) | 2-heptanone positive bees testing positive to compound [3] |
| --- | --- | --- | --- | --- | --- | --- |
| CCCCCC(C)=O [2-heptone, 2-Heptanone, reference compound] | −2.256 | 0.425 | 217 | very slightly soluble | – | – |
| CCOC(=O)c1cc(CC)sc1NC(=O)c1ccccc1 [compound 81, ethyl 2-(benzoylamino)-5-ethyl-3-thiophenecarboxylate] | – | 0.333 | 6 | – | Moderate (Moderate, indicates that 50% or less of the compound bound to OBP2.) | 37.5% |
| O=C1NC(=S)SC1=Cc1ccc(N2CCOCC2)c([N+](=O)[O-])c1 [compound 86, 5-[4-(4-morpholinyl)-3-nitrobenzylidene]-2-thioxo-1,3-thiazolidin-4-one] | – | 0.25 | 8 | – | Moderate (Moderate, indicates that 50% or less of the compound bound to OBP2.) | 38.1% |
| CCOc1ccccc1C=NN1C(=O)c2ccccc2C1=O [compound 79] | – | 1 | 2 | – | Moderate (Moderate, indicates that 50% or less of the compound bound to OBP2.) | 23.1% |
| CCc1ccc(O)c(N=Cc2cc(I)cc(I)c2O)c1 [compound 89, 2-{[(5-ethyl-2-hydroxyphenyl)imino]methyl}-4,6-diiodophenol] | – | 0.278 | 5 | – | Moderate (Moderate, indicates that 50% or less of the compound bound to OBP2.) | 33.3% |
| Oc1ccc2ccccc2c1C=Nc1ccc(I)cc1 [compound 74, 1-{[(4-iodophenyl)imino]methyl}-2-naphthol] | – | 0.45 | 18 | – | Moderate (Moderate, indicates that 50% or less of the compound bound to OBP2.) | 25.0% |
| Oc1c(Br)cc(Cl)cc1C=Nc1ccccn1 [compound 83, 2-bromo-4-chloro-6-[(2-pyridinylimino)methyl]phenol] | – | 0.278 | 10 | – | Moderate (Moderate, indicates that 50% or less of the compound bound to OBP2.) | 47.7% |
| Nc1c(C(=O)c2ccccc2)sc2nc(-c3cccnc3)ccc12 [compound 75, [3-amino-6-(3-pyridinyl)thieno[2,3-b]pyridin-2-yl](phenyl)methanone] | – | 0.542 | 13 | – | Moderate (Moderate, indicates that 50% or less of the compound bound to OBP2.) | 25.0% |
| CC(=O)c1ccccc1NC(=O)C1CCC(C(=O)Nc2ccccc2C(C)=O)S1 (centres unmarked) [compound 68, N,N′-bis(2-acetylphenyl)tetrahydro-2,5-thiophenedicarboxamide] | – | 0.5 | 2 | – | Moderate (Moderate, indicates that 50% or less of the compound bound to OBP2.) | 20.8% |
| c1ccc(Oc2cc(-n3cccn3)nc(-c3ccccc3)n2)cc1 [compound 80, 4-phenoxy-2-phenyl-6-(1H-pyrazol-1-yl)pyrimidine] | – | 0.333 | 2 | – | Moderate (Moderate, indicates that 50% or less of the compound bound to OBP2.) | 20.0% |
| Oc1ccc2ccccc2c1C=NNc1ccccn1 [compound 66, 2-hydroxy-1-naphthaldehyde 2-pyridinylhydrazone] | – | 0.379 | 22 | – | Moderate (Moderate, indicates that 50% or less of the compound bound to OBP2.) | 24.4% |
